# From US20130210034A1, “COMPLEX PHOSPHOPROTEIN ACTIVATION PROFILES” (BECKMAN COULTER, INC., priority 2005, published 2013)
# Values joined by “and” are separate entries in the source; they are usually repeats but may differ in a detail not shown here. Identical values can stand only once.
# Legend:
# Format in all cases: cell-based, human
# [1] = system: pSTAT5; assay: Phosphoprotein kinetic profiles in CD34+, CD117+ cells of AML bone marrow samples; conditions: AML1 sample (Example 6)
# Method: (§1) To assess the signal transduction response after growth factor simulation, 100 to 200 μL of processed samples including about 2×10^6 WBC/100 μL were added to tubes and incubated at 37° C. for 30 minutes. For inhibition experiments, cells were incubated with 100 μM U0126, 1 μg/mL rapamycin, or both for at least 20 minutes prior to cytokine addition and in all cases for 30 min prior to formaldehyde addition. […] After stimulation the cells were immediately fixed by the addition of formaldehyde to a final concentration of 4% v/v and incubated for 10 minutes at room temperature. Following fixation, red blood cells were lysed by the addition of TRITON-X/PBS solution (0.1% v/v final concentration Triton X-100) supplemented with a 1 x phosphatase inhibitor cocktail (PIC; final concentrations: 0.2 mM sodium orthovanadate, 2 mM sodium pyrophosphate decahydrate, 2 mM [3-glycerophosphate, and 10 mM sodium fluoride) and incubation at 37° C. for 20 minutes. The incubated solution was chilled by the addition of ice-cold Wash Buffer (final concentration 1×PBS and either 4% bovine serum albumin (BSA) or 4% heat-inactivated fetal bovine serum (FBS), supplemented with 1×PIC), and the samples were centrifuged at 300 g for 6 minutes at 4° C.). If the lysis was incomplete, samples were retreated with 0.1% Triton X-100 at 37° C. for 10 to 20 minutes. After removal of the supernatant, cells were washed twice in ice-cold Wash Buffer supplemented with 1×PIC and permeabilized by the addition of pre-chilled 80% methanol while simultaneously vortexing the tube and incubated on ice for 10 minutes. Methanol was removed by centrifugation, the pellet was washed with ice-cold 1×PBS, and non-specific binding was blocked by the addition of ice-cold Wash Buffer supplemented with 1×PIC and incubation at 4° C. for a minimum of 30 minutes.
# (§2) To stain cells with fluorescent conjugated monoclonal antibodies, the incubated solution was centrifuged to remove the supernatant and the pellet was incubated for 60 minutes at 4° C. with an antibody staining solution including 0.25 μg to 0.50 μg of pS6-Pacific Blue, pERK-ALEXA 488, pSTAT5-ALEXA 647, CD34-PE, CD45-PerCP, and CD117-PC7. Samples were washed three times with ice-cold Wash Buffer supplemented with 1×PIC, resuspended in 0.5 mL ice-cold Wash Buffer supplemented with 1×PIC including 0.5 μg/mL DAPI, and analyzed by flow cytometryusing a BD LSR II Flow Cytometer, equipped with a High Throughput Sampler (HTS).
# (§3) First, doublets, aggregates, and debris were excluded by gating on single cell events in the SSC-Area versus SSC-Height histogram. Then, in events passing through this gate, debris near the origin of the FSC-Area versus SSC-Area plot (gray in FIG. 4A) was excluded by drawing a gate around an area encompassing, primarily, lymphocytes, monocytes, and granulocytes (LMG, black in FIG. 4A). Next, in cells passing through the LMG gate, the blast region (circle in FIG. 4B) was identified in the CD45 versus SSC-Area histogram (FIG. 4B). From this blast population, CD34+, CD117+ cells were identified in the CD34 versus CD117 plot (boxed area in FIG. 4C). Finally, these cells were further analyzed for cytokine-mediated increases in phosphorylation by constructing gates in the single parameter histograms (for positively and negatively stained events, i.e., for the phosphorylated and non-phosphorylated forms, respectively, of each protein) for pS6 (FIGS. 4D and 4G), pERK (FIGS. 4E and 4H), and pSTAT5 (FIGS. 4F and 4I). […] The dotted lines in each of these histograms represent unstimulated cells at t=0 min. FCS files were processed with WinList 6.0 3D (Verity Software House).
# [2] = system: pERK; assay: as above; conditions: CD34^+, CD117^+ cells, AML1 sample (Example 6)
# Method: as §1, §2, §3
# [3] = system: pS6; assay: as above; conditions: CD34^+, CD117^+ cells, AML1 sample (Example 6)
# Method: as §1, §2, §3
# [4] = system: pSTAT5; assay: Phosphoprotein kinetic profiles in bone marrow samples from healthy donors
# Method: (§4) Phosphoprotein kinetic profiles were analyzed in bone marrow aspiration samples from nine healthy, adult donors (i.e., normal bone marrow or NBM) and from five AML patients. Samples from healthy donors included 5 males and 4 females, ranging in age from 26 to 49 years. Approximately 10 to 20 mL of bone marrow (BM) samples were collected from the posterior iliac crest of the volunteers using IRB approved protocols. The BM samples were filtered using a 40 μm Nylon cell strainer to remove marrow particles and the white blood cell concentration determined using a blood analyzer. […] The samples were immediately used for subsequent experimentation.
# as §1, §2
# (§5) First, doublets, aggregates, and debris were excluded by gating on single cell events in the SSC-Area versus SSC-Height histogram. Then, in events passing through this gate, debris near the origin of the FSC-Area versus SSC-Area plot (gray in FIG. 4A) was excluded by drawing a gate around an area encompassing, primarily, lymphocytes, monocytes, and granulocytes (LMG, black in FIG. 4A). Next, in cells passing through the LMG gate, the blast region (circle in FIG. 4B) was identified in the CD45 versus SSC-Area histogram (FIG. 4B). From this blast population, CD34+, CD117+ cells were identified in the CD34 versus CD117 plot (boxed area in FIG. 4C).
# [5] = system: pERK; assay: as above
# Method: as §4, §1, §2, §5
# [6] = system: pS6; assay: as above
# Method: as §4, §1, §2, §5
# [7] = CD34^+, CD117^+ cells, healthy donor samples
# [8] = monocytes vs CD34^+, CD117^+ cells
# [9] = monocytes, healthy donor bone marrow
substance,measurement,setting,value
Granulocyte-Macrophage Colony-Stimulating Factor [GM-CSF],pSTAT5 Amp (peak amplitude of fold stimulation),[1],110
same,pSTAT5 RI (response interval),[1],>60 min
same,pERK Amp (peak amplitude of fold stimulation),[2],6
same,pERK RI (response interval),[2],10 min
same,pS6 Amp (peak amplitude of fold stimulation),[3],1
same,pS6 RI (response interval),[3],20 min
same,pSTAT5 RI (response interval),[4]; [7],>60 min
same,"pSTAT5 maximal fold stimulation in monocytes, times the level observed in CD34^+, CD117^+ cells",[4]; [8],about 500 times
same,pSTAT5 maximal fold stimulation,[4]; [9],"approximately 10,000"
same,pERK Amp (peak amplitude of fold stimulation),[5]; [7],4.5 and 4.5 ± 0.6
same,pERK RI (response interval),[5]; [7],Variable
same,pERK maximal fold stimulation,[5]; [9],about 100
same,pS6 Amp (peak amplitude of fold stimulation),[6]; [7],1.8 and 1.8 ± 0.3
same,pS6 RI (response interval),[6]; [7],Variable
same,"pS6 maximal fold stimulation in monocytes, times the level observed in CD34^+, CD117^+ cells",[6]; [8],about 100 times
same,pS6 maximal fold stimulation,[6]; [9],about 500
